Consider 13 molecules from patent publication US20210238187A1, “AZIRIDINE CONTAINING EPOTHILONE ANALOGS, METHODS OF SYNTHESIS, METHODS OF TREATMENT, AND DRUG CONJUGATES” (WILLIAM MARSH RICE UNIVERSITY, priority 2017, published 2021).

The subject of one assay is Tubulin. As to the kind of experiment: Tubulin assembly induction. It is filed as biochemical.
The next assay concerns SNB-75. As to the kind of experiment: Cytotoxicity (GI50) assay, SNB-75. In kind it is cell-based, human. The settings on record: SNB-75; human glioblastoma cell line; read-out: Cancer cell lines GI50, SNB-75.
In the next assay the test system is MCF-7. As to the kind of experiment: Cytotoxicity (GI50) assay, MCF-7. It is filed as cell-based, human. The settings on record: MCF7; human breast cancer cell line; concentration required to decrease cell growth by 50%; read-out: Cancer cell lines GI50, MCF-7.
Another assay relates to OVCAR-8. The assay is described as follows: Cytotoxicity (GI50) assay, OVCAR-8. In kind it is cell-based, human. The following applies: OVCAR-8; human ovarian cancer cell line; read-out: Cancer cell lines GI50, OVCAR-8.
The next assay has as its system MES SA DX. The assay is described as follows: Cytotoxicity assay (CellTiter-Glo), MES SA DX. It is filed as cell-based, human. The following applies: Homo sapiens, read-out: Cancer cell lines IC50, MES SA DX. For orientation: In ATP-based viability assays light output follows the ATP content of the culture.
A further assay has as its system NCI/ADR-RES. As to the kind of experiment: Cytotoxicity (GI50) assay, NCI/ADR-RES. It is filed as cell-based, human. The following applies: Homo sapiens, NCI/ADR-RES, read-out: Cancer cell lines GI50, NCI/ADR-RES.
The subject of the next assay is MES SA. The assay is described as follows: Cytotoxicity assay (CellTiter-Glo), MES SA. In kind it is cell-based, human. The settings on record: MES-SA; human uterine sarcoma cell line; 72 hours, CellTiter-Glo; read-out: Cancer cell lines IC50, MES SA.
For another assay, the system named is MDA-MB-435. The assay is described as follows: Cytotoxicity (GI50) assay, MDA-MB-435. In kind it is cell-based, human. The following applies: MDA-MB-435; human melanoma cell line; read-out: Cancer cell lines GI50, MDA-MB-435.
Setting [1] is: highly drug resistant human ovarian cancer cell line.
Setting [2] is: MES SA cell line with marked multidrug resistance, 72 hours, CellTiter-Glo.

The pEC50 is −log10 of the EC50, conventionally taken in molar units. A lower pEC50 goes with a large EC50. The term pIC50 denotes −log10 of the IC50, conventionally taken in molar units.

Structures are written as SMILES. pEC50, pIC50: −log10 of the molar value. Like-named read-outs stand apart in the source and are kept apart here.

`CC(=Cc1csc(C)n1)C1CC2OC2CCCC(C)C(O)C(C)C(=O)C(C)(C)C(O)CC(=O)O1` (stereo not shown) [compound 1, epothilone A] showed a pEC50 with Tubulin of 4.66. For the same molecule, the GI50 is 26 nM in the assay on SNB-75; 17 nM with MCF-7; 20 nM in the assay on OVCAR-8; 78 nM in the assay on NCI/ADR-RES; 16 nM in the assay with MDA-MB-435. For the same molecule, the pIC50 in the assay on MES SA DX (MES-SA, 72 h) is 8.29; in the assay on MES SA it was 8.84.

In turn, `CC(=Cc1csc(C)n1)C1CC=CCCCC(C)C(O)C(C)C(=O)C(C)(C)C(O)CC(=O)O1` (stereo not shown) [compound 3, epothilone C, reference compound] gave a pEC50 in the assay on Tubulin of 4.74. In addition, the GI50 worked out at 70 nM in the assay on MCF-7 and 110 nM in the assay with OVCAR-8. In addition, in the assay with MES SA, the pIC50 was 7.50.

With `C/C(=C\c1csc(C)n1)[C@@H]1C[C@@H]2O[C@]2(C)CCC[C@H](C)[C@H](O)[C@@H](C)C(=O)C(C)(C)[C@@H](O)CC(=O)N1` [compound 5, ixabepilone, reference compound], the pEC50 in the assay on Tubulin ([…]) is 5.35. Besides, the GI50 in the assay on NCI/ADR-RES (setting [1]) was 1400 nM.

On to `C/C(=C\c1csc(C)n1)[C@@H]1C[C@@H]2N[C@]2(C)CCC[C@H](C)[C@H](O)[C@@H](C)C(=O)C(C)(C)[C@@H](O)CC(=O)O1` [compound 10, (1S,3S,7S,10R,11S,12S,16R)-7,11-Dihydroxy-8,8,10,12,16-pentamethyl-3-[(1E)-1-(2-methyl-1,3-thiazol-4-yl)prop-1-en-2-yl]-4-oxa-17-azabicyclo[14.1.0]heptadecane-5,9-dione], for which the pEC50 in the assay on Tubulin ([…]) was 4.72. In addition, the GI50 in the assay with MCF-7 is 2 nM; in the assay with OVCAR-8, 1.5 nM; with NCI/ADR-RES (setting [1]) it was 35 nM. Moreover, the pIC50 in the assay on MES SA DX (setting [2]) is 9.29; with MES SA, 10.40.

In the assay on Tubulin ([…]), `C/C(=C\c1csc(C)n1)[C@@H]1C[C@@H]2N(CCO)[C@]2(C)CCC[C@H](C)[C@H](O)[C@@H](C)C(=O)C(C)(C)[C@@H](O)CC(=O)O1` (stereo partly drawn) [compound 11, (1S,3S,7S,10R,11S,12S,16R)-7,11-Dihydroxy-17-(2-hydroxyethyl)-8,8,10,12,16-pentamethyl-3-[(1E)-1-(2-methyl-1,3-thiazol-4-yl)prop-1-en-2-yl]-4-oxa-17-azabicyclo[14.1.0]heptadecane-5,9-dione] gave a pEC50 of 4.74. Further, the GI50 is 3 nM with MCF-7, 4.5 nM in the assay on OVCAR-8 and 55 nM in the assay with NCI/ADR-RES (setting [1]). The results for the pIC50 in the assay with MES SA DX (setting [2]) and in the assay on MES SA were 7.86 and 9.03, respectively.

The molecule `CSc1nc(/C=C(\C)[C@@H]2C[C@@H]3N(CCO)[C@]3(C)CCC[C@H](C)[C@H](O)[C@@H](C)C(=O)C(C)(C)[C@@H](O)CC(=O)O2)cs1` (stereo partly drawn) [compound 12, (1S,3S,7S,10R,11S,12S,16R)-7,11-Dihydroxy-17-(2-hydroxyethyl)-8,8,10,12,16-pentamethyl-3-{(1E)-1-[2-(methylsulfanyl)-1,3-thiazol-4-yl]prop-1-en-2-yl}-4-oxa-17-azabicyclo[14.1.0]-heptadecane-5,9-dione] gave a pEC50 in the assay on Tubulin ([…]) of 4.85. The GI50 with SNB-75 was 60 nM; in the assay on MCF-7, 28 nM; with OVCAR-8, 75 nM; in the assay with NCI/ADR-RES (setting [1]), 55 nM; with MDA-MB-435, 42 nM. The values for the pIC50 with MES SA DX (setting [2]) and in the assay on MES SA were 9.18 and 9.89, respectively.

In the assay on Tubulin ([…]), `C/C(=C\c1csc(CN)n1)[C@@H]1C[C@@H]2N(CCO)[C@]2(C)CCC[C@H](C)[C@H](O)[C@@H](C)C(=O)C(C)(C)[C@@H](O)CC(=O)O1` (stereo partly drawn) [compound 13, (1S,3S,7S,10R,11S,12S,16R)-3-{(1E)-1-[2-(Aminomethyl)-1,3-thiazol-4-yl]prop-1-en-2-yl}-7,11-dihydroxy-17-(2-hydroxyethyl)-8,8,10,12,16-pentamethyl-4-oxa-17-azabicyclo[14.1.0]heptadecane-5,9-dione] showed a pEC50 below 4.22. The GI50 with SNB-75 was 130 nM; with MCF-7, 65 nM; in the assay on OVCAR-8, 93 nM; with NCI/ADR-RES (setting [1]) it was 2800 nM; with MDA-MB-435 it was 20 nM. In addition, the figures for the pIC50 with MES SA DX (setting [2]) and in the assay with MES SA were 9.07 and 10.11, respectively.

On to `CSc1nc(/C=C(\C)[C@@H]2C[C@@H]3N[C@]3(C)CCC[C@H](C)[C@H](O)[C@@H](C)C(=O)C(C)(C)[C@@H](O)CC(=O)O2)cs1` [compound 14, (1S,3S,7S,10R,11S,12S,16R)-7,11-Dihydroxy-8,8,10,12,16-pentamethyl-3-{(1E)-1-[2-(methyl-sulfanyl)-1,3-thiazol-4-yl]prop-1-en-2-yl}-4-oxa-17-azabicyclo[14.1.0]heptadecane-5,9-dione], for which the pEC50 in the assay on Tubulin ([…]) was 5.30. In addition, the GI50 in the assay with SNB-75 was determined as 11 nM; in the assay on MCF-7, 4 nM; with OVCAR-8, 16 nM; in the assay on MDA-MB-435, 4.5 nM. Besides, the negative logarithm of the IC50 (pIC50) in the assay on MES SA DX (setting [2]) is 8.25; with MES SA, 9.55.

`C/C(=C\c1csc(N)n1)[C@@H]1C[C@@H]2N(CCO)[C@]2(C)CCC[C@H](C)[C@H](O)[C@@H](C)C(=O)C(C)(C)[C@@H](O)CC(=O)O1` (stereo partly drawn) [compound 15, (1S,3S,7S,10R,11S,12S,16R)-3-[(1E)-1-(2-Amino-1,3-thiazol-4-yl)prop-1-en-2-yl]-7,11-dihydroxy-17-(2-hydroxyethyl)-8,8,10,12,16-pentamethyl-4-oxa-17-azabicyclo[14.1.0]heptadecane-5,9-dione] gave a pEC50 in the assay on Tubulin ([…]) of 4.89. The GI50 in the assay with SNB-75 came to 280 nM; in the assay on MCF-7 it was 330 nM; in the assay with OVCAR-8 it was 290 nM; in the assay with NCI/ADR-RES (setting [1]), 3800 nM; in the assay with MDA-MB-435, 220 nM. The values for the pIC50 with MES SA DX (setting [2]) and in the assay on MES SA were below 6.00 and 7.44, respectively.

The molecule `C/C(=C\c1csc(CCN)n1)[C@@H]1C[C@@H]2N(CCO)[C@]2(C)CCC[C@H](C)[C@H](O)[C@@H](C)C(=O)C(C)(C)[C@@H](O)CC(=O)O1` (stereo partly drawn) [compound 20, (1S,3S,7S,10R,11S,12S,16R)-3-{(1E)-1-[2-(2-Aminoethyl)-1,3-thiazol-4-yl]prop-1-en-2-yl}-7,11-dihydroxy-17-(2-hydroxyethyl)-8,8,10,12,16-pentamethyl-4-oxa-17-azabicyclo[14.1.0]heptadecane-5,9-dione] had a pEC50 with Tubulin ([…]) of 5.04. Moreover, the GI50 in the assay with SNB-75 amounted to 50 nM; with MCF-7 it was 15 nM; with OVCAR-8, 8.6 nM; in the assay on NCI/ADR-RES (setting [1]) it was 45 nM; in the assay with MDA-MB-435 it was 3.8 nM. The figures for the pIC50 in the assay on MES SA DX (setting [2]) and in the assay on MES SA were below 5.60 and 7.79, respectively.

For `C/C(=C\c1ccccn1)[C@@H]1C[C@@H]2N(CCO)[C@]2(C)CCC[C@H](C)[C@H](O)[C@@H](C)C(=O)C(C)(C)[C@@H](O)CC(=O)O1` (stereo partly drawn) [compound 21, (1S,3S,7S,10R,11S,12S,16R)-7,11-Dihydroxy-17-(2-hydroxyethyl)-8,8,10,12,16-pentamethyl-3-[(1E)-1-(pyridin-2-yl)prop-1-en-2-yl]-4-oxa-17-azabicyclo[14.1.0]heptadecane-5,9-dione], the pEC50 in the assay with Tubulin ([…]) was below 4.22. For the same molecule, the GI50 with SNB-75 worked out at 98 nM; in the assay on MCF-7, 250 nM; in the assay on OVCAR-8 it was 170 nM; in the assay with NCI/ADR-RES (setting [1]), 4000 nM; with MDA-MB-435, 30 nM. In addition, the pIC50 in the assay with MES SA DX (setting [2]) was 6.12; in the assay on MES SA, 9.16.

On to `CSc1cc(/C=C(\C)[C@@H]2C[C@@H]3N(CCO)[C@]3(C)CCC[C@H](C)[C@H](O)[C@@H](C)C(=O)C(C)(C)[C@@H](O)CC(=O)O2)nn1C` (stereo partly drawn) [compound 23, (1S,3S,7S,10R,11S,12S,16R)-7,11-Dihydroxy-17-(2-hydroxyethyl)-8,8,10,12,16-pentamethyl-3-{(1E)-1-[1-methyl-5-(methylsulfanyl)-1H-pyrazol-3-yl]prop-1-en-2-yl}-4-oxa-17-azabicyclo[14.1.0]heptadecane-5,9-dione], for which, in the assay on Tubulin ([…]), the pEC50 was 5.34. In addition, the GI50 in the assay with SNB-75 came to 10 nM; with MCF-7 it was 78 nM; in the assay on OVCAR-8, 10 nM; with MDA-MB-435 it was 12 nM. In addition, the pIC50 was 7.42 with MES SA DX (setting [2]) and 9.66 in the assay on MES SA.

With `C/C(=C\c1nc2ccccc2s1)[C@@H]1C[C@@H]2N(CCO)[C@]2(C)CCC[C@H](C)[C@H](O)[C@@H](C)C(=O)C(C)(C)[C@@H](O)CC(=O)O1` (stereo partly drawn) [compound 24, (1S,3S,7S,10R,11S,12S,16R)-3-[(1E)-1-(1,3-Benzothiazol-2-yl)prop-1-en-2-yl]-7,11-dihydroxy-17-(2-hydroxyethyl)-8,8,10,12,16-pentamethyl-4-oxa-17-azabicyclo[14.1.0]heptadecane-5,9-dione], the pEC50 in the assay with Tubulin ([…]) was 5.10. In addition, the GI50 in the assay with SNB-75 amounted to 12 nM; in the assay with MCF-7, 11 nM; with OVCAR-8, 23 nM; in the assay on NCI/ADR-RES (setting [1]), 630 nM; in the assay on MDA-MB-435, 3.5 nM. The pIC50 in the assay with MES SA DX (setting [2]) was 8.88; with MES SA it was 9.74.
